{"source": "patent US8952024B2", "about": "“Herbicidal pyrimidone derivatives” (E I du Pont de Nemours and Company, priority 2009, dated 2015)", "assay_in_all_cases": "Test B pre-/postemergence plant response", "format_in_all_cases": "in vivo", "settings_in_all_cases": "for pest or weed control at 31 g/ha: 31 g ai/ha; for pest or weed control at 62 g/ha: 62 g ai/ha; for pest or weed control at 125 g/ha: 125 g ai/ha", "key": {"[1]": {"test_system": "Surinam grass (Brachiaria decumbens)", "in_short": "(§1)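 Seeds were sown in loam soil/sand blend and treated preemergence with compound in non-phytotoxic solvent mixture containing surfactant; postemergence sprays, same formulation, went onto plants 2 to 18 cm (1- to 4-leaf stage) in peat-based planting medium. Greenhouse 13 to 15 days, then visual rating versus untreated controls, 0 (no effect) to 100 (complete control).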"}, "[2]": {"test_system": "bermudagrass (Cynodon dactylon)", "in_short": "as §1"}, "[3]": {"test_system": "downy bromegrass (Bromus tectorum)", "in_short": "as §1"}, "[4]": {"test_system": "lambsquarters (Chenopodium album)", "in_short": "as §1"}, "[5]": {"test_system": "pigweed (Amaranthus retroflexus)", "in_short": "as §1"}, "[6]": {"settings": "Preemergence, 250 g ai/ha, 0 to 100 scale"}, "[7]": {"settings": "Urochloa decumbens, pre-emergence, Preemergence, scale 0 to 100 (0 no effect, 100 complete control), read-out: Plant response rating, Surinam Grass"}, "[8]": {"settings": "Cynodon dactylon, pre-emergence, Preemergence, scale 0 to 100 (0 no effect, 100 complete control), read-out: Plant response rating, Bermudagrass"}, "[9]": {"settings": "Bromus tectorum, pre-emergence, Preemergence, scale 0 to 100 (0 no effect, 100 complete control), read-out: Plant response rating, Bromegrass, Downy"}, "[10]": {"settings": "Chenopodium album, pre-emergence, Preemergence, scale 0 to 100 (0 no effect, 100 complete control), read-out: Plant response rating, Lambsquarters"}, "[11]": {"settings": "Amaranthus retroflexus, pre-emergence, Preemergence, scale 0 to 100 (0 no effect, 100 complete control), read-out: Plant response rating, Pigweed"}}, "note": "Where two headings read alike, the source gives them in different places.", "data": [{"smiles": "COCCn1c(-c2cc(F)cc(F)c2)ncc(C(=O)C2=C(O)C3CCC(C3)C2=O)c1=O", "note": "(stereo not shown) [Compound 243, 2-(3,5-difluorophenyl)-5-[(2-hydroxy-4-oxobicyclo[3.2.1]oct-2-en-3-yl)carbonyl]-3-(2-methoxyethyl)-4(3H)-pyrimidinone]", "values": [{"measurement": "Surinam Grass plant response rating", "setting": "[1]; [6]", "value": 100}, {"measurement": "pest or weed control at 31 g/ha", "setting": "[1]; Urochloa decumbens, post-emergence, Postemergence, 0 to 100 scale (0 no effect, 100 complete control), read-out: Plant response rating, Surinam Grass", "value": 90, "unit": "%"}, {"measurement": "pest or weed control at 62 g/ha", "setting": "[1]; Urochloa decumbens, post-emergence, Postemergence, scale 0 to 100 (0 no effect, 100 complete control), read-out: Plant response rating, Surinam Grass", "value": 95, "unit": "%"}, {"measurement": "pest or weed control at 125 g/ha", "setting": "[1]; Urochloa decumbens, post-emergence, Postemergence, scale 0 (no effect) to 100 (complete control), 13 to 15 days, read-out: Plant response rating, Surinam Grass", "value": 100, "unit": "%"}, {"measurement": "pest or weed control at 250 g/ha", "setting": "[1]; Urochloa decumbens, post-emergence, Postemergence, 250 g ai/ha, scale 0 to 100 (0 no effect, 100 complete control), 13 to 15 days, read-out: Plant response rating, Surinam Grass", "value": 100, "unit": "%"}, {"measurement": "pest or weed control at 31 g/ha", "setting": "[1]; [7]", "value": 80, "unit": "%"}, {"measurement": "pest or weed control at 62 g/ha", "setting": "[1]; [7]", "value": 98, "unit": "%"}, {"measurement": "pest or weed control at 125 g/ha", "setting": "[1]; Urochloa decumbens, pre-emergence, Preemergence, scale 0 to 100, 0 no effect, 100 complete control, read-out: Plant response rating, Surinam Grass", "value": 100, "unit": "%"}, {"measurement": "pest or weed control at 31 g/ha", "setting": "[2]; Cynodon dactylon, post-emergence, Postemergence, 0 to 100 scale (0 no effect, 100 complete control), read-out: Plant response rating, Bermudagrass", "value": 98, "unit": "%"}, {"measurement": "pest or weed control at 62 g/ha", "setting": "[2]; Cynodon dactylon, post-emergence, Postemergence, scale 0 to 100 (0 no effect, 100 complete control), read-out: Plant response rating, Bermudagrass", "value": 98, "unit": "%"}, {"measurement": "pest or weed control at 125 g/ha", "setting": "[2]; Cynodon dactylon, post-emergence, Postemergence, scale 0 (no effect) to 100 (complete control), 13 to 15 days, read-out: Plant response rating, Bermudagrass", "value": 100, "unit": "%"}, {"measurement": "pest or weed control at 250 g/ha", "setting": "[2]; Cynodon dactylon, post-emergence, Postemergence, 250 g ai/ha, scale 0 to 100 (0 no effect, 100 complete control), 13 to 15 days, read-out: Plant response rating, Bermudagrass", "value": 100, "unit": "%"}, {"measurement": "pest or weed control at 31 g/ha", "setting": "[2]; [8]", "value": 100, "unit": "%"}, {"measurement": "pest or weed control at 62 g/ha", "setting": "[2]; [8]", "value": 100, "unit": "%"}, {"measurement": "pest or weed control at 125 g/ha", "setting": "[2]; Cynodon dactylon, pre-emergence, Preemergence, scale 0 to 100, 0 no effect, 100 complete control, read-out: Plant response rating, Bermudagrass", "value": 100, "unit": "%"}, {"measurement": "Bermudagrass plant response rating", "setting": "[2]; Preemergence, 250 g ai/ha, 0 to 100 scale, 0 no effect, 100 complete control", "value": 100}, {"measurement": "pest or weed control at 31 g/ha", "setting": "[3]; Bromus tectorum, post-emergence, Postemergence, 0 to 100 scale (0 no effect, 100 complete control), read-out: Plant response rating, Bromegrass, Downy", "value": 50, "unit": "%"}, {"measurement": "pest or weed control at 62 g/ha", "setting": "[3]; Bromus tectorum, post-emergence, Postemergence, scale 0 to 100 (0 no effect, 100 complete control), read-out: Plant response rating, Bromegrass, Downy", "value": 70, "unit": "%"}, {"measurement": "pest or weed control at 125 g/ha", "setting": "[3]; Bromus tectorum, post-emergence, Postemergence, scale 0 (no effect) to 100 (complete control), 13 to 15 days, read-out: Plant response rating, Bromegrass, Downy", "value": 95, "unit": "%"}, {"measurement": "pest or weed control at 250 g/ha", "setting": "[3]; Bromus tectorum, post-emergence, Postemergence, 250 g ai/ha, scale 0 to 100 (0 no effect, 100 complete control), 13 to 15 days, read-out: Plant response rating, Bromegrass, Downy", "value": 100, "unit": "%"}, {"measurement": "pest or weed control at 31 g/ha", "setting": "[3]; [9]", "value": 0, "unit": "%"}, {"measurement": "pest or weed control at 62 g/ha", "setting": "[3]; [9]", "value": 40, "unit": "%"}, {"measurement": "pest or weed control at 125 g/ha", "setting": "[3]; Bromus tectorum, pre-emergence, Preemergence, scale 0 to 100, 0 no effect, 100 complete control, read-out: Plant response rating, Bromegrass, Downy", "value": 60, "unit": "%"}, {"measurement": "Bromegrass, Downy plant response rating", "setting": "[3]; [6]", "value": 70}, {"measurement": "pest or weed control at 31 g/ha", "setting": "[4]; Chenopodium album, post-emergence, Postemergence, 0 to 100 scale (0 no effect, 100 complete control), read-out: Plant response rating, Lambsquarters", "value": 100, "unit": "%"}, {"measurement": "pest or weed control at 62 g/ha", "setting": "[4]; Chenopodium album, post-emergence, Postemergence, scale 0 to 100 (0 no effect, 100 complete control), read-out: Plant response rating, Lambsquarters", "value": 100, "unit": "%"}, {"measurement": "pest or weed control at 125 g/ha", "setting": "[4]; Chenopodium album, post-emergence, Postemergence, scale 0 (no effect) to 100 (complete control), 13 to 15 days, read-out: Plant response rating, Lambsquarters", "value": 100, "unit": "%"}, {"measurement": "pest or weed control at 250 g/ha", "setting": "[4]; Chenopodium album, post-emergence, Postemergence, 250 g ai/ha, scale 0 to 100 (0 no effect, 100 complete control), 13 to 15 days, read-out: Plant response rating, Lambsquarters", "value": 100, "unit": "%"}, {"measurement": "pest or weed control at 31 g/ha", "setting": "[4]; [10]", "value": 100, "unit": "%"}, {"measurement": "pest or weed control at 62 g/ha", "setting": "[4]; [10]", "value": 100, "unit": "%"}, {"measurement": "pest or weed control at 125 g/ha", "setting": "[4]; Chenopodium album, pre-emergence, Preemergence, scale 0 to 100, 0 no effect, 100 complete control, read-out: Plant response rating, Lambsquarters", "value": 100, "unit": "%"}, {"measurement": "Lambsquarters plant response rating", "setting": "[4]; [6]", "value": 100}, {"measurement": "pest or weed control at 31 g/ha", "setting": "[5]; Amaranthus retroflexus, post-emergence, Postemergence, 0 to 100 scale (0 no effect, 100 complete control), read-out: Plant response rating, Pigweed", "value": 85, "unit": "%"}, {"measurement": "pest or weed control at 62 g/ha", "setting": "[5]; Amaranthus retroflexus, post-emergence, Postemergence, scale 0 to 100 (0 no effect, 100 complete control), read-out: Plant response rating, Pigweed", "value": 100, "unit": "%"}, {"measurement": "pest or weed control at 125 g/ha", "setting": "[5]; Amaranthus retroflexus, post-emergence, Postemergence, scale 0 (no effect) to 100 (complete control), 13 to 15 days, read-out: Plant response rating, Pigweed", "value": 100, "unit": "%"}, {"measurement": "pest or weed control at 250 g/ha", "setting": "[5]; Amaranthus retroflexus, post-emergence, Postemergence, 250 g ai/ha, scale 0 to 100 (0 no effect, 100 complete control), 13 to 15 days, read-out: Plant response rating, Pigweed", "value": 100, "unit": "%"}, {"measurement": "pest or weed control at 31 g/ha", "setting": "[5]; [11]", "value": 75, "unit": "%"}, {"measurement": "pest or weed control at 62 g/ha", "setting": "[5]; [11]", "value": 98, "unit": "%"}, {"measurement": "pest or weed control at 125 g/ha", "setting": "[5]; Amaranthus retroflexus, pre-emergence, Preemergence, scale 0 to 100, 0 no effect, 100 complete control, read-out: Plant response rating, Pigweed", "value": 100, "unit": "%"}, {"measurement": "Pigweed plant response rating", "setting": "[5]; [6]", "value": 100}]}]}
